PubChem BioAssay (NCI)
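Method: 48-hour compound exposure of cells in 96-well plates, five concentrations, linear interpolation of endpoints. At the TGI there is no net growth.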

Tests used:
Assay in all cases: NCI-60 cell line screen, 48 h
NCI-H23 lung = tested on: NCI-H23 lung
MOLT-4 leukemia = tested on: MOLT-4 leukemia
KM12 colon = tested on: KM12 colon
OVCAR-5 ovarian = tested on: OVCAR-5 ovarian
LXFL 529 NSCLC = tested on: LXFL 529 NSCLC
SF-539 CNS = tested on: SF-539 CNS
SK-MEL-5 melanoma = tested on: SK-MEL-5 melanoma
SNB-19 CNS = tested on: SNB-19 CNS
SK-MEL-2 melanoma = tested on: SK-MEL-2 melanoma
HOP-62 NSCLC = tested on: HOP-62 NSCLC
HT29 colon = tested on: HT29 colon
SF-268 CNS = tested on: SF-268 CNS
RXF-631 renal = tested on: RXF-631 renal
RPMI-8226 leukemia = tested on: RPMI-8226 leukemia
HOP-18 NSCLC = tested on: HOP-18 NSCLC
U251 CNS = tested on: U251 CNS
DMS 273 small cell lung = tested on: DMS 273 small cell lung
KM20L2 colon = tested on: KM20L2 colon
HCT-15 colon = tested on: HCT-15 colon
IGROV1 ovarian = tested on: IGROV1 ovarian
OVCAR-4 ovarian = tested on: OVCAR-4 ovarian
SNB-75 CNS = tested on: SNB-75 CNS
HL-60(TB) leukemia = tested on: HL-60(TB) leukemia
CCRF-CEM leukemia = tested on: CCRF-CEM leukemia
UO-31 renal = tested on: UO-31 renal
NCI-H460 lung = tested on: NCI-H460 lung
UACC-62 melanoma = tested on: UACC-62 melanoma
SNB-78 CNS = tested on: SNB-78 CNS
EKVX NSCLC = tested on: EKVX NSCLC
SW-620 colon = tested on: SW-620 colon
HCT-116 colon = tested on: HCT-116 colon
SN12C renal = tested on: SN12C renal
HOP-92 NSCLC = tested on: HOP-92 NSCLC
DLD-1 colon = tested on: DLD-1 colon
A498 renal = tested on: A498 renal
NCI-H522 lung = tested on: NCI-H522 lung
XF 498 CNS = tested on: XF 498 CNS
SK-MEL-28 melanoma = tested on: SK-MEL-28 melanoma
A549 NSCLC = tested on: A549 NSCLC
RXF 393 renal = tested on: RXF 393 renal
OVCAR-3 ovarian = tested on: OVCAR-3 ovarian
SF-295 CNS = tested on: SF-295 CNS
ACHN renal = tested on: ACHN renal
786-0 renal = tested on: 786-0 renal
LOX IMVI melanoma = tested on: LOX IMVI melanoma
COLO 205 colon = tested on: COLO 205 colon
TK-10 renal = tested on: TK-10 renal
M19-MEL melanoma = tested on: M19-MEL melanoma
M14 melanoma = tested on: M14 melanoma
OVCAR-8 ovarian = tested on: OVCAR-8 ovarian
MALME-3M melanoma = tested on: MALME-3M melanoma
SK-OV-3 ovarian = tested on: SK-OV-3 ovarian
K-562 leukemia = tested on: K-562 leukemia
DMS 114 small cell lung = tested on: DMS 114 small cell lung
UACC-257 melanoma = tested on: UACC-257 melanoma
CAKI-1 renal = tested on: CAKI-1 renal
NCI-H226 lung = tested on: NCI-H226 lung
SR leukemia = tested on: SR leukemia

`NC(N)=NS(=O)(=O)c1ccc(NC(=O)c2cccc3c(Nc4ccc(S(=O)(=O)N=C(N)N)cc4)c4ccccc4nc23)cc1` showed a TGI (NCI-H23 lung) of over 100 µM, a TGI (MOLT-4 leukemia) of over 100 µM and a TGI (KM12 colon) of over 100 µM. It also gave a TGI (OVCAR-5 ovarian) of over 100 µM, a TGI (LXFL 529 NSCLC) of over 100 µM and a TGI (SF-539 CNS) of over 100 µM. The TGI (SK-MEL-5 melanoma) was over 100 µM, the TGI (SNB-19 CNS) was over 100 µM and the TGI (SK-MEL-2 melanoma) was over 100 µM. It also gave a TGI (HOP-62 NSCLC) of over 100 µM, a TGI (HT29 colon) of over 100 µM and a TGI (SF-268 CNS) of over 100 µM. The TGI (RXF-631 renal) was over 100 µM, the TGI (RPMI-8226 leukemia) was over 100 µM and the TGI (HOP-18 NSCLC) was over 100 µM. It also gave a TGI (U251 CNS) of over 100 µM, a TGI (DMS 273 small cell lung) of over 100 µM and a TGI (KM20L2 colon) of over 100 µM. It also gave a TGI (HCT-15 colon) of over 100 µM, a TGI (IGROV1 ovarian) of over 100 µM and a TGI (OVCAR-4 ovarian) of over 100 µM. The TGI (SNB-75 CNS) was 81.5 µM, the TGI (HL-60(TB) leukemia) was over 100 µM and the TGI (CCRF-CEM leukemia) was over 100 µM. For the same molecule, the TGI (UO-31 renal) was over 100 µM, the TGI (NCI-H460 lung) was over 100 µM and the TGI (UACC-62 melanoma) was over 100 µM. It also gave a TGI (SNB-78 CNS) of over 100 µM, a TGI (EKVX NSCLC) of over 100 µM and a TGI (SW-620 colon) of over 100 µM. The TGI (HCT-116 colon) was over 100 µM, the TGI (SN12C renal) was over 100 µM and the TGI (HOP-92 NSCLC) was over 100 µM. It also gave a TGI (DLD-1 colon) of over 100 µM, a TGI (A498 renal) of over 100 µM and a TGI (NCI-H522 lung) of over 100 µM. The TGI (XF 498 CNS) was over 100 µM, the TGI (SK-MEL-28 melanoma) was over 100 µM and the TGI (A549 NSCLC) was over 100 µM. For the same molecule, the TGI (RXF 393 renal) was over 100 µM, the TGI (OVCAR-3 ovarian) was over 100 µM and the TGI (SF-295 CNS) was over 100 µM. It also gave a TGI (ACHN renal) of over 100 µM, a TGI (786-0 renal) of over 100 µM and a TGI (LOX IMVI melanoma) of over 100 µM. It also gave a TGI (COLO 205 colon) of over 100 µM, a TGI (TK-10 renal) of over 100 µM and a TGI (M19-MEL melanoma) of over 100 µM. For the same molecule, the TGI (M14 melanoma) was over 100 µM, the TGI (OVCAR-8 ovarian) was over 100 µM and the TGI (MALME-3M melanoma) was over 100 µM. It also gave a TGI (SK-OV-3 ovarian) of over 100 µM, a TGI (K-562 leukemia) of over 100 µM and a TGI (DMS 114 small cell lung) of over 100 µM. It also gave a TGI (UACC-257 melanoma) of over 100 µM.

`[O-][n+]1c2cc3c(cc2[n+]([O-])c2c(O)cccc21)CN(CCN1CCOCC1)C3` showed a TGI (CAKI-1 renal) of over 100 µM, a TGI (NCI-H23 lung) of 71 µM and a TGI (MOLT-4 leukemia) of 26.9 µM. For the same molecule, the TGI (KM12 colon) was 31.8 µM, the TGI (OVCAR-5 ovarian) was over 100 µM and the TGI (LXFL 529 NSCLC) was 62.1 µM. For the same molecule, the TGI (SK-MEL-5 melanoma) was over 100 µM, the TGI (SNB-19 CNS) was over 100 µM and the TGI (SK-MEL-2 melanoma) was 53 µM. For the same molecule, the TGI (HT29 colon) was 50.2 µM, the TGI (SF-268 CNS) was 60.6 µM and the TGI (RXF-631 renal) was over 100 µM. It also gave a TGI (RPMI-8226 leukemia) of 71.7 µM, a TGI (HOP-18 NSCLC) of over 100 µM and a TGI (U251 CNS) of 28.7 µM. For the same molecule, the TGI (DMS 273 small cell lung) was over 100 µM, the TGI (KM20L2 colon) was over 100 µM and the TGI (HCT-15 colon) was over 100 µM. It also gave a TGI (IGROV1 ovarian) of 39.5 µM, a TGI (OVCAR-4 ovarian) of over 100 µM and a TGI (SNB-75 CNS) of over 100 µM. For the same molecule, the TGI (HL-60(TB) leukemia) was 36.8 µM, the TGI (CCRF-CEM leukemia) was 47 µM and the TGI (UO-31 renal) was 40.9 µM. It also gave a TGI (NCI-H460 lung) of 28.1 µM, a TGI (UACC-62 melanoma) of 74.7 µM and a TGI (SNB-78 CNS) of over 100 µM. For the same molecule, the TGI (EKVX NSCLC) was 68 µM, the TGI (HCT-116 colon) was 33.2 µM and the TGI (SN12C renal) was over 100 µM. The TGI (NCI-H226 lung) was over 100 µM, the TGI (SR leukemia) was 7.83 µM and the TGI (HOP-92 NSCLC) was 32.3 µM. It also gave a TGI (A498 renal) of over 100 µM, a TGI (NCI-H522 lung) of 19 µM and a TGI (XF 498 CNS) of 33.5 µM. For the same molecule, the TGI (SK-MEL-28 melanoma) was over 100 µM, the TGI (A549 NSCLC) was over 100 µM and the TGI (RXF 393 renal) was 42.4 µM. It also gave a TGI (OVCAR-3 ovarian) of 50.8 µM, a TGI (SF-295 CNS) of 40 µM and a TGI (ACHN renal) of 66.9 µM. It also gave a TGI (786-0 renal) of over 100 µM, a TGI (COLO 205 colon) of 30.5 µM and a TGI (TK-10 renal) of over 100 µM. The TGI (M19-MEL melanoma) was 49 µM, the TGI (M14 melanoma) was over 100 µM and the TGI (OVCAR-8 ovarian) was 32.5 µM. The TGI (MALME-3M melanoma) was over 100 µM, the TGI (SK-OV-3 ovarian) was 58.9 µM and the TGI (K-562 leukemia) was 54.2 µM. The TGI (DMS 114 small cell lung) was 25.4 µM and the TGI (UACC-257 melanoma) was 87.2 µM.
